{
  "source": "PubChem BioAssay (NCI)",
  "assay_in_all_cases": "growth of human tumour cells (NCI), 48 h",
  "key": {"786-0 renal": {"system": "786-0 renal"}, "A498 renal": {"system": "A498 renal"}, "A549 NSCLC": {"system": "A549 NSCLC"}, "ACHN renal": {"system": "ACHN renal"}, "BT-549 breast": {"system": "BT-549 breast"}, "CAKI-1 renal": {"system": "CAKI-1 renal"}, "CCRF-CEM leukemia": {"system": "CCRF-CEM leukemia"}, "COLO 205 colon": {"system": "COLO 205 colon"}, "DU-145 prostate": {"system": "DU-145 prostate"}, "EKVX NSCLC": {"system": "EKVX NSCLC"}, "HCC-2998 colon": {"system": "HCC-2998 colon"}, "HCT-116 colon": {"system": "HCT-116 colon"}, "HCT-15 colon": {"system": "HCT-15 colon"}, "HL-60(TB) leukemia": {"system": "HL-60(TB) leukemia"}, "HOP-62 NSCLC": {"system": "HOP-62 NSCLC"}, "HOP-92 NSCLC": {"system": "HOP-92 NSCLC"}, "HS 578T breast": {"system": "HS 578T breast"}, "HT29 colon": {"system": "HT29 colon"}, "IGROV1 ovarian": {"system": "IGROV1 ovarian"}, "K-562 leukemia": {"system": "K-562 leukemia"}, "KM12 colon": {"system": "KM12 colon"}, "LOX IMVI melanoma": {"system": "LOX IMVI melanoma"}, "M14 melanoma": {"system": "M14 melanoma"}, "MALME-3M melanoma": {"system": "MALME-3M melanoma"}, "MCF7 breast": {"system": "MCF7 breast"}, "MDA-MB-231 breast": {"system": "MDA-MB-231 breast"}, "MDA-MB-435": {"system": "MDA-MB-435"}, "MDA-N": {"system": "MDA-N"}, "MOLT-4 leukemia": {"system": "MOLT-4 leukemia"}, "NCI-H226 lung": {"system": "NCI-H226 lung"}, "NCI-H23 lung": {"system": "NCI-H23 lung"}, "NCI-H460 lung": {"system": "NCI-H460 lung"}, "NCI-H522 lung": {"system": "NCI-H522 lung"}, "NCI/ADR-RES ovarian": {"system": "NCI/ADR-RES ovarian"}, "OVCAR-3 ovarian": {"system": "OVCAR-3 ovarian"}, "OVCAR-5 ovarian": {"system": "OVCAR-5 ovarian"}, "OVCAR-8 ovarian": {"system": "OVCAR-8 ovarian"}, "PC-3 prostate": {"system": "PC-3 prostate"}, "RPMI-8226 leukemia": {"system": "RPMI-8226 leukemia"}, "RXF 393 renal": {"system": "RXF 393 renal"}, "SF-268 CNS": {"system": "SF-268 CNS"}, "SF-295 CNS": {"system": "SF-295 CNS"}, "SF-539 CNS": {"system": "SF-539 CNS"}, "SK-MEL-2 melanoma": {"system": "SK-MEL-2 melanoma"}, "SK-MEL-28 melanoma": {"system": "SK-MEL-28 melanoma"}, "SK-MEL-5 melanoma": {"system": "SK-MEL-5 melanoma"}, "SK-OV-3 ovarian": {"system": "SK-OV-3 ovarian"}, "SN12C renal": {"system": "SN12C renal"}, "SNB-19 CNS": {"system": "SNB-19 CNS"}, "SNB-75 CNS": {"system": "SNB-75 CNS"}, "SR leukemia": {"system": "SR leukemia"}, "SW-620 colon": {"system": "SW-620 colon"}, "T-47D breast": {"system": "T-47D breast"}, "TK-10 renal": {"system": "TK-10 renal"}, "U251 CNS": {"system": "U251 CNS"}, "UACC-257 melanoma": {"system": "UACC-257 melanoma"}, "UACC-62 melanoma": {"system": "UACC-62 melanoma"}, "UO-31 renal": {"system": "UO-31 renal"}},
  "note": "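Values below derive from 48-hour exposures of cells grown in 96-well plates, with endpoints linearly interpolated between the two concentrations bracketing the appropriate inhibition level. TGI denotes the concentration required for complete inhibition of growth.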",
  "data": [
    {"smiles": "CC1=NC(C)(C)[N+]([O-])=C1", "values": [
      {"measurement": "TGI", "setting": "786-0 renal", "result": "> 10", "unit": "µM"},
      {"measurement": "TGI", "setting": "A498 renal", "result": "> 10", "unit": "µM"},
      {"measurement": "TGI", "setting": "A549 NSCLC", "result": "> 10", "unit": "µM"},
      {"measurement": "TGI", "setting": "ACHN renal", "result": "> 10", "unit": "µM"},
      {"measurement": "TGI", "setting": "BT-549 breast", "result": "> 10", "unit": "µM"},
      {"measurement": "TGI", "setting": "CAKI-1 renal", "result": "> 10", "unit": "µM"},
      {"measurement": "TGI", "setting": "CCRF-CEM leukemia", "result": "> 10", "unit": "µM"},
      {"measurement": "TGI", "setting": "COLO 205 colon", "result": "> 10", "unit": "µM"},
      {"measurement": "TGI", "setting": "DU-145 prostate", "result": "> 10", "unit": "µM"},
      {"measurement": "TGI", "setting": "EKVX NSCLC", "result": "> 10", "unit": "µM"},
      {"measurement": "TGI", "setting": "HCC-2998 colon", "result": "> 10", "unit": "µM"},
      {"measurement": "TGI", "setting": "HCT-116 colon", "result": "> 10", "unit": "µM"},
      {"measurement": "TGI", "setting": "HCT-15 colon", "result": "> 10", "unit": "µM"},
      {"measurement": "TGI", "setting": "HL-60(TB) leukemia", "result": "> 10", "unit": "µM"},
      {"measurement": "TGI", "setting": "HOP-62 NSCLC", "result": "> 10", "unit": "µM"},
      {"measurement": "TGI", "setting": "HOP-92 NSCLC", "result": "> 10", "unit": "µM"},
      {"measurement": "TGI", "setting": "HS 578T breast", "result": "> 10", "unit": "µM"},
      {"measurement": "TGI", "setting": "HT29 colon", "result": "> 10", "unit": "µM"},
      {"measurement": "TGI", "setting": "IGROV1 ovarian", "result": "> 10", "unit": "µM"},
      {"measurement": "TGI", "setting": "K-562 leukemia", "result": "> 10", "unit": "µM"},
      {"measurement": "TGI", "setting": "KM12 colon", "result": "> 10", "unit": "µM"},
      {"measurement": "TGI", "setting": "LOX IMVI melanoma", "result": "> 10", "unit": "µM"},
      {"measurement": "TGI", "setting": "M14 melanoma", "result": "> 10", "unit": "µM"},
      {"measurement": "TGI", "setting": "MALME-3M melanoma", "result": "> 10", "unit": "µM"},
      {"measurement": "TGI", "setting": "MCF7 breast", "result": "> 10", "unit": "µM"},
      {"measurement": "TGI", "setting": "MDA-MB-231 breast", "result": "> 10", "unit": "µM"},
      {"measurement": "TGI", "setting": "MDA-MB-435", "result": "> 10", "unit": "µM"},
      {"measurement": "TGI", "setting": "MDA-N", "result": "> 10", "unit": "µM"},
      {"measurement": "TGI", "setting": "MOLT-4 leukemia", "result": "> 10", "unit": "µM"},
      {"measurement": "TGI", "setting": "NCI-H226 lung", "result": "> 10", "unit": "µM"},
      {"measurement": "TGI", "setting": "NCI-H23 lung", "result": "> 10", "unit": "µM"},
      {"measurement": "TGI", "setting": "NCI-H460 lung", "result": "> 10", "unit": "µM"},
      {"measurement": "TGI", "setting": "NCI-H522 lung", "result": "> 10", "unit": "µM"},
      {"measurement": "TGI", "setting": "NCI/ADR-RES ovarian", "result": "> 10", "unit": "µM"},
      {"measurement": "TGI", "setting": "OVCAR-3 ovarian", "result": "> 10", "unit": "µM"},
      {"measurement": "TGI", "setting": "OVCAR-5 ovarian", "result": "> 10", "unit": "µM"},
      {"measurement": "TGI", "setting": "OVCAR-8 ovarian", "result": "> 10", "unit": "µM"},
      {"measurement": "TGI", "setting": "PC-3 prostate", "result": "> 10", "unit": "µM"},
      {"measurement": "TGI", "setting": "RPMI-8226 leukemia", "result": "> 10", "unit": "µM"},
      {"measurement": "TGI", "setting": "RXF 393 renal", "result": "> 10", "unit": "µM"},
      {"measurement": "TGI", "setting": "SF-268 CNS", "result": "> 10", "unit": "µM"},
      {"measurement": "TGI", "setting": "SF-295 CNS", "result": "> 10", "unit": "µM"},
      {"measurement": "TGI", "setting": "SF-539 CNS", "result": "> 10", "unit": "µM"},
      {"measurement": "TGI", "setting": "SK-MEL-2 melanoma", "result": "> 10", "unit": "µM"},
      {"measurement": "TGI", "setting": "SK-MEL-28 melanoma", "result": "> 10", "unit": "µM"},
      {"measurement": "TGI", "setting": "SK-MEL-5 melanoma", "result": "> 10", "unit": "µM"},
      {"measurement": "TGI", "setting": "SK-OV-3 ovarian", "result": "> 10", "unit": "µM"},
      {"measurement": "TGI", "setting": "SN12C renal", "result": "> 10", "unit": "µM"},
      {"measurement": "TGI", "setting": "SNB-19 CNS", "result": "> 10", "unit": "µM"},
      {"measurement": "TGI", "setting": "SNB-75 CNS", "result": 4.85, "unit": "µM"},
      {"measurement": "TGI", "setting": "SR leukemia", "result": "> 10", "unit": "µM"},
      {"measurement": "TGI", "setting": "SW-620 colon", "result": "> 10", "unit": "µM"},
      {"measurement": "TGI", "setting": "T-47D breast", "result": "> 10", "unit": "µM"},
      {"measurement": "TGI", "setting": "TK-10 renal", "result": "> 10", "unit": "µM"},
      {"measurement": "TGI", "setting": "U251 CNS", "result": "> 10", "unit": "µM"},
      {"measurement": "TGI", "setting": "UACC-257 melanoma", "result": "> 10", "unit": "µM"},
      {"measurement": "TGI", "setting": "UACC-62 melanoma", "result": "> 10", "unit": "µM"},
      {"measurement": "TGI", "setting": "UO-31 renal", "result": "> 10", "unit": "µM"}
    ]}
  ]
}
